# Measured values reported in the supplement of paper PMC11208160.
# Assay: recombinant UMI read abundance after kanamycin selection (control-corrected) (log10(CPM+1)); higher = more efficient recombination; extreme values may be limits of the assay; sequences stand for … in AGTGCAGAGAAAATCGGCCAGTTTTCTCTGCCTGCAGTCCGCATGCCGTGGGACCCCTTGGGTTCTAACCTGTTGCCTAGATTTATGCAGCGGACTGCCTTTCTCCCAAAGTGATAAACCGG…AGGTTGGTTTCACT; site = the 11-nt donor
# In short: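 In a pooled Escherichia coli screen for the IS621 bridge recombinase, donor and donor-binding-loop pairs were each placed with a 12-nt UMI on a plasmid bearing a promoterless kanamycin gene. This library was co-electroporated with a target plasmid encoding a fixed target and T7-inducible recombinase, and cells were plated either on IPTG (0.07 mM) plus kanamycin or without selection, in two replicates each. Recombinant UMIs were PCR-amplified across the donor–target junction and sequenced, and counts were converted to CPM, averaged over replicates, scaled by control-derived factors and reported as log10(CPM+1).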
row,Sequence,recombinant UMI read abundance (log10)
1,ACAGTCTCATGGACCGGTTTTCCCGGTAATCCGTATTTGGA (site ACAGTCTCTTC),2.89
2,TCAGGGACATGGACCGGTTTTCCCGGTAATCCGTATTTGCG (site TCAGTGACTCG),0.0229
3,CGTAATACATGGACCGGTTTTCCCGGTAATCCGTATTTGGC (site CGTAATACTGC),1.22
4,GGTACGTCATGGACCGGTTTTCCCGGTAATCCGTATTTGCT (site GGTACGTCTAT),0.00579
5,AGGAAGACATGGACCGGTTTTCCCGGTAATCCGTATTTGCA (site AGTAAGCCTTG),0
6,CGGATTCCATGGACCGGTTTTCCCGGTAATCCGTATTTGTT (site CGGATTCCTAA),0.599
7,AGGCCGGCATGGACCGGTTTTCCCGGTAATCCGTATTTGGC (site TGGCCGGCTGC),0
8,ACCCCAACATGGACCGGTTTTCCCGGTAATCCGTATTTGGT (site ACCCCAACTAC),0.756
9,CTCTACACATGGACCGGTTTTCCCGGTAATCCGTATTTGCT (site GTCTACACTAG),0.232
10,AATTTTGCATGGACCGGTTTTCCCGGTAATCCGTATTTGGA (site AATTATGCTTC),0.473
11,GGATAGCCATGGACCGGTTTTCCCGGTAATCCGTATTTGCC (site GGATAGACTGG),0
12,ACCGGACCATGGACCGGTTTTCCCGGTAATCCGTATTTGGC (site ACCGGACCTGC),0
13,CGAGGTCCATGGACCGGTTTTCCCGGTAATCCGTATTTGGG (site CGAGGACCTCC),0.0132
14,TAGCTAGCATGGACCGGTTTTCCCGGTAATCCGTATTTGAA (site TAGCTAGCTTC),0.504
15,TGTGACGCATGGACCGGTTTTCCCGGTAATCCGTATTTGTG (site TGTGACGCTCA),0.239
16,GGCCACCCATGGACCGGTTTTCCCGGTAATCCGTATTTGTT (site GGACACCCTAA),0.0221
17,TAGAACACATGGACCGGTTTTCCCGGTAATCCGTATTTGCA (site TAGAAAACTTG),0
18,GTTGTCCCATGGACCGGTTTTCCCGGTAATCCGTATTTGGT (site GTTGTGCCTAC),0.0145
19,GGCTGCTCATGGACCGGTTTTCCCGGTAATCCGTATTTGTG (site GGCTGCTCTCA),0.427

row,Sequence,recombinant UMI read abundance (log10)
1,AGCGTTTCATGGACCGGTTTTCCCGGTAATCCGTATTTGAC (site AGCATTTCTGT),0
2,TGTACAGCATGGACCGGTTTTCCCGGTAATCCGTATTTGAA (site TGTACAGCTTT),0.369
3,GACGGCCCATGGACCGGTTTTCCCGGTAATCCGTATTTGTT (site CACGGCCCTAA),0.0467
4,CCGATGCCATGGACCGGTTTTCCCGGTAATCCGTATTTGGA (site CCGATGCCTTC),0.0103
5,TGATCCCCATGGACCGGTTTTCCCGGTAATCCGTATTTGTA (site TGCTCCCCTTA),0.195
6,CGGCATCCATGGACCGGTTTTCCCGGTAATCCGTATTTGGT (site CGGAATCCTAA),0
7,CATGGAACATGGACCGGTTTTCCCGGTAATCCGTATTTGTT (site CTTGGAACTAA),0.00575
8,GTTAGAACATGGACCGGTTTTCCCGGTAATCCGTATTTGGG (site GTTAGAACTTC),0.00779
9,GGAGCCTCATGGACCGGTTTTCCCGGTAATCCGTATTTGAC (site GGAGCCTCTGT),2.15
10,CCAAAAGCATGGACCGGTTTTCCCGGTAATCCGTATTTGAT (site CCTAAAGCTAT),0
11,TGTTCCCCATGGACCGGTTTTCCCGGTAATCCGTATTTGGA (site TGTTCCCCTTA),0.0182
12,AGGAAGACATGGACCGGTTTTCCCGGTAATCCGTATTTGCA (site AGAAAGACTCG),0.0197
13,CGGACATCATGGACCGGTTTTCCCGGTAATCCGTATTTGCT (site GGGACATCTAG),0
14,ATAAGGCCATGGACCGGTTTTCCCGGTAATCCGTATTTGAC (site ATAAGCCCTGT),0
15,CGAGGACCATGGACCGGTTTTCCCGGTAATCCGTATTTGTG (site CGAGGACCTCA),0.00285
16,CACGCGACATGGACCGGTTTTCCCGGTAATCCGTATTTGTA (site CACGCGACTTA),2.4
17,CCAGGTGCATGGACCGGTTTTCCCGGTAATCCGTATTTGAT (site CCAGGTGCTTT),0.206
18,CGCACCTCATGGACCGGTTTTCCCGGTAATCCGTATTTGGG (site CGCACCTCTCC),0.526
